What was measured:
core clock components = experiment: Time dependent protein and mRNA analysis in synchronized U2OS cells; format: cell-based, human
Procedure: FIGS. 5A-5K are an illustration of FORMULA I altered CLOCK protein level in time dependent manner. Confluent U2OS cells were synchronized by 2-hours treatment with dexamethasone (0.1 μM) and medium replaced with fresh medium containing CLK8 or DMSO. Cells were harvested at indicated time points. FIGS. 5A-5D show a time dependent analysis of core clock proteins by Western blot. (mean±SEM, n=3). FIGS. 5E-5K show a qPCR analysis of the core clock genes in a time dependent manner. (Data represent the mean±SEM, n=3 ***: p<0.001 **: p<0.005, *: p<0.05 versus DMSO control by one-way ANOVA Tukey).
Unsynchronized Bmal1::dluc U2OS cells were seeded on 6-well dishes. Confluent cells were treated with an appropriate amount of CLK8 for 48 hours. Control cells were treated with 0.5% vehicle (DMSO). After harvesting the cells, mRNAs were isolated (RNeasy, QIAGEN) and converted to cDNA (Thermo Scientific). Finally, cDNAs were subjected to SYBR Green-based RT-qPCR assay. PRLP0 was used as an internal control. For western blot analysis RIPA buffer was used to prepare whole cell lysates. The amount of protein for each sample was normalized to the β-ACTIN amount detected by β-Actin antibody (Cell Signalling).

[1] = target: T1, CLOCK and BMAL1 interaction (Homo sapiens, UniProt O15516); experiment: Co-immunoprecipitation of FLAG-CLOCK and BMAL1; format: biochemical; conditions: 10 μM and 40 μM
T1 construct: expressed in transfected cells; host or cells: HEK 293T
T1 sequence (O15516 1-846): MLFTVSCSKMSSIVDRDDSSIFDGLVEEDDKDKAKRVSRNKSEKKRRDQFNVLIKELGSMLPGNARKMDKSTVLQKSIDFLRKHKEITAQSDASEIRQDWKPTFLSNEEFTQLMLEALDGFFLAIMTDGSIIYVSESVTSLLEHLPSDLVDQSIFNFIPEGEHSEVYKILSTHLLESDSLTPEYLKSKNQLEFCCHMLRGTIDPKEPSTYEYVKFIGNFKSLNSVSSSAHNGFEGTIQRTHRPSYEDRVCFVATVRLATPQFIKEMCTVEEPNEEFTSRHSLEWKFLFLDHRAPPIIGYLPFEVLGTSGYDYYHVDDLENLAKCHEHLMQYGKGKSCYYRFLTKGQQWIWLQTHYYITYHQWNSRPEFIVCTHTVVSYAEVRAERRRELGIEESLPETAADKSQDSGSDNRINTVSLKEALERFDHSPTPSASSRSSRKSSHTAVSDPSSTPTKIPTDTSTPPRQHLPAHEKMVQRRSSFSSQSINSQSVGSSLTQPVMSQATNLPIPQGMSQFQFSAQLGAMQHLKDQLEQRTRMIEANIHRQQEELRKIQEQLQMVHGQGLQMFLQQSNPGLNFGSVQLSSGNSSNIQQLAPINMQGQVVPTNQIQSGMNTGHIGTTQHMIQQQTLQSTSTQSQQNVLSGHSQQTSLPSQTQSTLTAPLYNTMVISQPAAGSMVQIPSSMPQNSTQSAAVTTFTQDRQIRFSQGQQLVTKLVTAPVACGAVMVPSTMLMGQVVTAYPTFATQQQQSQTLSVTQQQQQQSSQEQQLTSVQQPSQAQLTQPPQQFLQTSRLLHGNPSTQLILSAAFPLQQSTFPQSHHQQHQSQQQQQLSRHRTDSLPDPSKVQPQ
Procedure: HEK 293T cells co-expressing wild type or F80A-K220A mutant FLAG-tagged Clock together with tag-free Bmal1 were lysed with ice-cold lysis buffer (50 mM Tris-HCl PH 7.7, 150 mM NaCl, 0.1% Triton X-100, 1 mM PMSF and protease inhibitor cocktail) and centrifuged at 15000×g at 4° C. for 20 minutes. DMSO and different concentrations of CLK8 were added to the whole cell lysate. The mixtures were incubated with anti-FLAG M2 affinity gel (Sigma-Aldrich) at 4° C. overnight with continuous mixing. After three wash steps, bound proteins were eluted with Laemmli buffer heated at 95° C. for 7 minutes. CLOCK and BMAL1 were detected by monoclonal anti-FLAG M2 antibody (Sigma-Aldrich) and anti-BMAL1 (Santa Cruz Biotechnology) respectively. The amount of co-precipitated BMAL1 was normalized with the amount of precipitated CLOCK.
HEK 293T cells co-expressing wild type or F80A-K220A mutant FLAG-tagged Clock together with tag-free Bmal1 were lysed with ice-cold lysis buffer (50 mM Tris-HCl pH 7.7, 150 mM NaCl, 0.1% Triton X-100, 1 mM PMSF and protease inhibitor cocktail) and centrifuged at 15000×g at 4° C. for 20 minutes. DMSO and different concentrations of CLK8 were added to the whole cell lysate. […] CLOCK and BMAL1 were detected by monoclonal anti-FLAG M2 antibody (Sigma-Aldrich) and anti-BMAL1 (Santa Cruz Biotechnology) respectively. […]

U2OS cells = experiment: MTT-based cell cytotoxicity test; parameters: species or system human
Procedure: The toxicity of the compounds was assessed by MTT-based assay using immortalized human osteosarcoma (U2OS) cells treated with different compounds at different concentrations. Cell viability was measured with MTT-based cell cytotoxicity test. U2OS cells were seeded on 96-well plate with 4×10^3 cell/well density. Two days later, the cells were treated with an appropriate amount of different small molecules. Control cells were treated with 0.5% vehicle (DMSO). After 48 hours, the media was replaced with a 20% solution of 5 mg/ml MTT in DMEM. After 4 hours of incubation, the media was discarded and a 1:1 solution of ethanol and DMSO was used to dissolve the formazan crystals. Cell viability was measured as stated in Sigma-Aldrich product information.
Compounds with a relative cell viability of less than 80% at 1.25 μM were eliminated. The final concentration of a non-toxic compounds for in vitro experiments was set to the maximum concentration at which it had at least 80% relative cell viability. Ultimately, 72 compounds were statistically identified as non-toxic and used for the next characterization step.

CC1(C)CCc2c(cc(OCC(=O)Nc3ccccc3C(N)=O)c3c(-c4ccccc4)cc(=O)oc23)O1 [CLK8, 2-[2-({12,12-dimethyl-4-oxo-6-phenyl-3,11-dioxatricyclo [8.4.0.0,2,7]tetradeca-1,5,7,9-tetraen-8-yl}oxy)acetamido] benzamide]
CRY1 and PER2 protein abundance (core clock components): comparable protein abundance | CRY1 and PER2 transcript level (core clock components): significantly reduced | protein levels of CLOCK and BMAL1 (core clock components): reduced | transcriptional level of Clock (core clock components): increased | oscillatory amplitude of clock gene expression (core clock components; collected every 6 h): generally lower | amount of co-precipitated BMAL1 [1]: reduced as the concentration of CLK8 increased | toxicity to the U2OS cell line (U2OS cells): not toxic

Reference: patent publication US12558342B2, “2-[2-({12,12-dimethyl-4-oxo-6-phenyl-3,11-dioxatricyclo[8.4.0.0,2,7]tetradeca-1,5,7,9-tetraen-8-yl}oxy)acetamido]benzamide and derivatives as inhibitor of clock:bmal1 interaction for the treatment of circadian rhythm diseases and disorders” (KOC UNIVERSITESI, priority 2019, dated 2026)
